Like-named read-outs stand apart in the source and are kept apart here.

The subject of data set [1] is Para influenza-3 virus. The data set can be described thus: organism not typed. The conditions noted are these: Vero, read-out: EC50 Para influenza-3 virus. Format: cell-based.
Data set [2] concerns Reovirus-1. The data set can be described thus: organism not typed. In kind it is cell-based. The conditions noted are these: Vero, read-out: EC50 Reovirus-1.
Data set [3] deals with Feline Herpes Virus. Briefly: Anti-Feline Herpes Virus activity in CRFK cell cultures. Format: cell-based. The conditions noted are these: for EC50: CRFK, read-out: EC50 Feline Herpes Virus.
The subject of data set [4] is MDCK cells. The data set can be described thus: Cytotoxicity in MDCK cell cultures. In kind it is cell-based, canine.
The subject of data set [5] is HEL cell cultures. Conditions: human.
The subject of data set [6] is Vero cell cultures. Conditions: African green monkey.
In data set [7] the test system is HeLa cell cultures. Conditions: human.
The test system of data set [8] is Vaccinia virus. The data set can be described thus: microbe, parasite or virus in culture. In kind it is cell-based. The conditions noted are these: Orthopoxvirus vaccinia, HEL, read-out: EC50 Vaccinia virus.
For data set [9], the system named is Vesicular stomatitis virus. The data set can be described thus: microbe, parasite or virus in culture. In kind it is cell-based. Conditions: HEL, read-out: EC50 Vesicular stomatitis virus.
Data set [10] relates to Influenza B. The data set can be described thus: microbe, parasite or virus in culture. In kind it is cell-based.
For data set [11], the system named is MDCK cells.
Data set [12] is described as follows: in vitro. Conditions: dog.
For data set [13], the system named is Herpes simplex virus-1 (KOS). Briefly: microbe, parasite or virus in culture. In kind it is cell-based.
For data set [14], the system named is Herpes simplex virus-2 (G). Briefly: microbe, parasite or virus in culture. Format: cell-based.
Data set [15] has as its system Herpes simplex virus-1 TK- KOS ACVr. Format: cell-based.
In data set [16] the test system is Feline Corona Virus (FIPV). Briefly: Anti-Feline Corona Virus activity in CRFK cell cultures. In kind it is cell-based. Conditions: MTS assay.
The mark [17] stands for this setting: microscopically detectable alteration of normal cell morphology.

As to `C/C(=N\n1c(-c2ccccc2)nc2ccccc2c1=O)c1ccc(O)cc1` [Compound 2i, 3-[1-(4-Hydroxy-phenyl)-ethylideneamino]-2-phenyl-3H-quinazolin-4one], the EC50 in [1], in [2] and in [3] was more than 100 µg/mL each time. Moreover, the “Cytotoxicity Minimum cytotoxic concentration” value in data set [4] (setting [17]) was more than 100 µg/mL. Moreover, the Minimum cytotoxic concentration in data set [5], in data set [6] and in [7] was more than 100 µg/mL in each case.
Regarding `COc1ccccc1/C=N/n1c(-c2ccccc2)nc2ccccc2c1=O` [Compound 2l, 3-[(2-Methoxy-benzylidine)-amino]-2-phenyl-3H-quinazolin-4one], the concentration for a half-maximal effect (EC50) in [1] was more than 20 µg/mL; in data set [2], more than 20 µg/mL; in data set [3], more than 4 µg/mL. The Minimum cytotoxic concentration in [5] and in data set [6] was 100 µg/mL each time.
On to `Nc1nc(O)c2ncn(COC(CO)CO)c2n1` [Ganciclovir, reference compound], for which the EC50 is more than 100 µM in data set [8], more than 100 µM in data set [9] and 0.8 µM in data set [3]. This molecule registered a Minimum cytotoxic concentration in data set [5] of more than 100 µM.
For `O=c1c2ccccc2nc(-c2ccccc2)n1/N=C/c1cccc([N+](=O)[O-])c1` [Compound 2b, 3-[(3-Nitro-benzylidine)-amino]-2-phenyl-3H-quinazolin-4one], the concentration giving a half-maximal response (EC50) in [1], in data set [2] and in data set [3] was more than 4 µg/mL each time. Also, in data set [5], the Minimum cytotoxic concentration is not below 20 µg/mL.
With Oseltamivir carboxylate, in data set [4] (reference compounds), the “Cytotoxicity Minimum cytotoxic concentration” value was more than 100 µM. Besides, in [10] (read-out: Antiviral EC50 Influenza B MTS, […], MTS assay, reference compounds), the EC50 amounted to 1.5 µM. In addition, the CC50 in [11] is more than 100 µM.
Turning to `CC(N)C12CC3CC(CC(C3)C1)C2` (stereo not shown) [Rimantadin], in data set [12], the CC50 amounted to 472 µM.
In the case of `C/C(=N\n1c(-c2ccccc2)nc2ccccc2c1=O)c1ccccc1` [Compound 2h, 2-Phenyl-3(1-phenyl-ethylideneamino)-3H-quinazolin-4one], the EC50 is more than 20 µg/mL in data set [1], more than 20 µg/mL in data set [2] and more than 0.8 µg/mL in data set [3]. In addition, the “Cytotoxicity Minimum cytotoxic concentration” value in data set [4] (setting [17]) is 100 µg/mL. The Minimum cytotoxic concentration in data set [5] was more than 100 µg/mL; in data set [6], 100 µg/mL; in data set [7], more than 100 µg/mL.
For the molecule `NC12CC3CC(CC(C3)C1)C2` [Amantadin, reference compound], the “Cytotoxicity Minimum cytotoxic concentration” value in data set [4] (reference compounds) was more than 1000 µM. For the same molecule, the CC50 in [12] was more than 1000 µM.
As for `COc1ccc(/C=N/n2c(-c3ccccc3)nc3ccccc3c2=O)cc1` [Compound 2c, 3-[(4-Methoxy-benzylidine)-amino]-2-phenyl-3H-quinazolin-4one], the results for the 50% effective concentration (EC50) in [1], in [2] and in data set [3] were more than 20 µg/mL, more than 20 µg/mL and more than 4 µg/mL, respectively. For the same molecule, the Minimum cytotoxic concentration in data set [6] is 100 µg/mL.
For the molecule `O=c1c2ccccc2nc(-c2ccccc2)n1/N=C/c1ccccc1O` [Compound 2a, 3-[(2-Hydroxy-benzylidine)-amino]-2-phenyl-3H-quinazolin-4one], in [13], the “selectivity index, herpes simplex virus-1 (KOS)” value is 100. In addition, the “selectivity index, herpes simplex virus-2 (G)” value in [14] is listed as 100. The “selectivity index, herpes simplex virus-1 TK- KOS ACVr” value in data set [15] is recorded as 100. The EC50 in data set [1] was more than 20 µg/mL; in [3] it was more than 4 µg/mL. For the same molecule, the “Cytotoxicity Minimum cytotoxic concentration” value in data set [4] (setting [17]) is not below 0.8 µg/mL. Also, the Minimum cytotoxic concentration in data set [5] and in data set [6] was 100 µg/mL in each case.
For the molecule `Nc1ncnc2c1ncn2C[C@H](O)CO` [(S)-DHPA, reference compound], the EC50 in data set [1] and in data set [2] was more than 250 µM each time.
`NC(=O)c1ncn([C@@H]2O[C@H](CO)[C@@H](O)[C@H]2O)n1` [Ribavirin, reference compound]: the EC50 was more than 250 µM in data set [13] (Human alphaherpesvirus 1, HEL, read-out: EC50 Herpes simplex virus-1 (KOS)); more than 250 µM in [14] (Human alphaherpesvirus 2, HEL, read-out: EC50 Herpes simplex virus-2 (G)); more than 250 µM in [8]; more than 250 µM in [2]; 9 µM in [10] (Influenza B virus, MDCK, read-out: Antiviral EC50 Influenza B Visual CPE score). The “Cytotoxicity Minimum cytotoxic concentration” value in data set [4] (reference compounds) is not below 100 µM.
Take `O=c1c2ccccc2nc(-c2ccccc2)n1/N=C/c1ccc(Cl)cc1` [Compound 2j, 3-[(4-Chloro-benzylidine)-amino]-2-phenyl-3H-quinazolin-4one]: the half-maximal effective concentration (EC50) was more than 4 µg/mL in data set [1], more than 4 µg/mL in [2] and more than 20 µg/mL in [3]. The same molecule yielded a Minimum cytotoxic concentration in data set [5] of 100 µg/mL.
For `O=c1c2ccccc2nc(-c2ccccc2)n1/N=C/c1ccc(O)cc1` [Compound 2g, 3-[(4-Hydroxy-benzylidine)-amino]-2-phenyl-3H-quinazolin-4one], the EC50 in [1], in data set [2] and in data set [3] was more than 20 µg/mL each time. The Minimum cytotoxic concentration in data set [5], in [6] and in data set [7] was 100 µg/mL each time.
For `COc1ccc(/C=N/n2c(-c3ccccc3)nc3ccccc3c2=O)cc1O` [Compound 2k, 3-[(3-Hydroxy-4-methoxy-benzylidine)-amino]-2-phenyl-3H-quinazolin-4one], the half-maximal effective concentration (EC50) in [1], in [2] and in data set [3] was more than 20 µg/mL in each case. In addition, the Minimum cytotoxic concentration in data set [5] and in data set [6] was 100 µg/mL throughout.
As to `O=c1c2ccccc2nc(-c2ccccc2)n1/N=C/c1ccccc1` [Compound 2f, 3-(Benzylidine-amino)-2-phenyl-3H-quinazolin-4one], the figures for the EC50 in [1], in data set [2] and in [3] were more than 4 µg/mL, more than 4 µg/mL and more than 0.8 µg/mL, respectively.

B1: UDA: reference substance in Table 4, not defined in the text (protein, UniProt P11218 24-372, looked up)
Lectin/endochitinase 1: QRCGSQGGGGTCPALWCCSIWGWCGDSEPYCGRTCENKCWSGERSDHRCGAAVGNPPCGQDRCCSVHGWCGGGNDYCSGSKCQYRCSSSVRGPRVALSGNSTANSIGNVVVTEPLFDQMFSHRKDCPSQGFYSYHSFLVAAESFPAFGTIGDVATRKREVAAFLAHISQATSGERSDVENPHAWGLCHINTTTVTENDFCTSSDWPCAAGKKYSPRGPIQLTHNFNYGLAGQAIGEDLIQNPDLVEKDPIISFKTALWFWMSQHDNKPSCHDIVLNANSAANRIPNKGVIGNIISRAFGHDDFAVRSSSIGFYKRYCDMLGVSYGHDLKYWFDNTPSSEFQRIQMRVAA
Turning to B1, the “EC50 Feline Corona Virus (FIPV)” value in [16] came to 11.7 µg/mL. Also, in [3] (CRFK cell cultures, MTS assay), the “EC50 Feline Herpes Virus” value worked out at 53.1 µg/mL.

The record behind these values is publication PMC7115544 (European Journal of Medicinal Chemistry, 2010).
